Assay results taken from patent US20080176882A1, “SALTS OF 3-(3-AMINO-2-(R)-HYDROXY-PROPYL)-1-(4-FLUORO-PHENYL)-8-(8-METHYL-NAPHTHALEN-1-YLMETHYL)-1,3,8-TRIAZA-SPIRO[4.5]DECAN-4-ONE” (priority 2006, published 2008).
Counter-ions that a name gives are not always drawn.

Assay: DVS (Differential Vapor Sorption) measurements of hygroscopicity
Assay type: physicochemical
Conditions: salt forms of the compound of formula (Is)
Source text: In an embodiment, the present invention is directed to a hydrochloride salt of the compound of formula (Is). In another embodiment of the present invention, the hydrochloride salt of the compound of formula (Is) is mono-hydrochloride or di-hydrochloride salt of the compound of formula (Is). In another embodiment of the present invention, the mono-hydrochloride and di-hydrochloride salts of the compound of formula (Is) are crystalline. DVS measurements completed on the mono-hydrochloride and di-hydrochloride salts of the compound of formula (Is) indicate that both of these salt forms are hygroscopic.

Cc1cccc2cccc(CN3CCC4(CC3)C(=O)N(C[C@H](O)CN)CN4c3ccc(F)cc3)c12 [mono-hydrochloride, 3-(3-amino-2-(R)-hydroxy-propyl)-1-(4-fluoro-phenyl)-8-(8-methyl-naphthalen-1-ylmethyl)-1,3,8-triaza-spiro[4.5]decan-4-one]
hygroscopicity by DVS measurements: hygroscopic
